Test system: Adriamycin-induced FSGS in BALB/c mice
Assay: Adriamycin induced nephropathy mouse model of FSGS (UPCR, UACR, histology)
Type: in vivo
Settings: Experiment 1, FIG. 5; chow with 25 mg/kg saroglitazar and/or 625 mg/kg myristic acid from day 2
From the text: For biological testing of the shortlisted compounds, we chose accepted mouse models of FSGS such as the adriamycin induced nephropathy or miR-193a-overexpressing mice which suffer from FSGS due to suppression of Wilms' tumor 1 (WT1) gene (Gebeshuber et al., 2013). All animal experiments and handling were in accordance with the Austrian law for protection of animals and approved by the animal ethics committee of the Austrian ministry for science and research.
Adriamycin-dependent nephropathy (active compound: doxorubicin) was induced by tail vein injection accepted doses of approx. 9 mg/kg mouse in 10 weeks old BALB/c mice. Control mice were injected with 0.9% saline. At least 6 mice were analyzed per group. Mice were monitored daily for signs of pain, altered movement, or reduced food uptake and sacrificed by cervical dislocation. […]
Urinary albumin levels were assessed by ELISA, urinary total protein and urinary creatinine levels were measured on the Roche Cobas system, using routine laboratory kits. Urinary protein/creatinine (UPCR) ratio and urinary albumin/creatinine ratio (UACR) were assessed at different time points. Weight and physical fitness scores were monitored on a daily basis. […]
Spot urine was collected every week and Creatinine and protein levels were measured.
Urinary albumin was measured by ELISA. […]

## CCCCCCCCCCCCCC(=O)O [Myristic acid]
  effect on proteinuria (UPCR) versus control, in words: did not reduce UPCR

## CCO[C@@H](Cc1ccc(OCCn2c(C)ccc2-c2ccc(SC)cc2)cc1)C(=O)O [saroglitazar]
  effect on proteinuria (UPCR) versus control, in words: able to ameliorate proteinuria to a certain extent

Source: US20240041825A1, “SAROGLITAZAR AND MYRISTIC ACID FOR USE IN THE TREATMENT OF FOCAL SEGMENTAL GLOMERULOSCLEROSIS (FSGS)” (Delta 4 GmbH, priority 2020, published 2024)
